Assay results taken from PubChem BioAssay AID220 (DTP/NCI, 2004).
Values joined by “and” are separate entries in the source; they are usually repeats but may differ in a detail not shown here. Equal values may be shown once. Inconclusive results are not listed.

Tested on: CD8F1 mice, subcutaneous mammary adenocarcinoma, T/C%
Assay: NCI In Vivo Anticancer Drug Screen. Data for tumor model Mammary Adenocarcinoma CD8F1 (subcutaneous) in CD8F1
Conditions: higher = larger tumour
In short: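 Antitumor activity is assessed in transplantable-tumor mice by comparing the treated group with a vehicle-treated control group. Survival or tumor size serves as the measure, reported as T divided by C.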

[1] = endpoint: median tumor weight change, dose: 50.0 mg/kg/injection, schedule: Q01DX001 (ip), vehicle: saline with Tween-80
[2] = endpoint: median tumor weight change, dose: 100.0 mg/kg/injection, schedule: Q01DX001 (ip), vehicle: saline with Tween-80
[3] = endpoint: median tumor weight change, dose: 125.0 mg/kg/injection, schedule: Q01DX001 (ip), vehicle: saline with Tween-80
[4] = endpoint: median tumor weight change, dose: 250.0 mg/kg/injection, schedule: Q01DX001 (ip), vehicle: saline with Tween-80
[5] = endpoint: median tumor weight change, dose: 500.0 mg/kg/injection, schedule: Q01DX001 (ip), vehicle: saline with Tween-80
[6] = endpoint: median tumor weight (est.), dose: 12.5 mg/kg/injection, schedule: Q07DX005 (ip), vehicle: saline
[7] = endpoint: median tumor weight (est.), dose: 25.0 mg/kg/injection, schedule: Q07DX005 (ip), vehicle: saline
[8] = endpoint: median tumor weight change, dose: 1000.0 mg/kg/injection, schedule: Q01DX001 (ip), vehicle: saline
[9] = endpoint: median tumor weight change, dose: 2000.0 mg/kg/injection, schedule: Q01DX001 (ip), vehicle: saline
[10] = endpoint: median tumor weight change, dose: 250.0 mg/kg/injection, schedule: Q01DX001 (ip), vehicle: saline
[11] = endpoint: median tumor weight change, dose: 250.0 mg/kg/injection, schedule: Q01DX001 (ip), vehicle: Klucel (hydroxypropylcellulose) (HPC)
[12] = endpoint: median tumor weight change, dose: 31.25 mg/kg/injection, schedule: Q01DX001 (ip), vehicle: saline with Tween-80
[13] = endpoint: median tumor weight change, dose: 62.5 mg/kg/injection, schedule: Q01DX001 (ip), vehicle: saline with Tween-80

NC(=O)/C=C/C(=O)c1c(Cl)cccc1Cl
T/C (endpoint: median tumor weight change, dose: 1.5 mg/kg/injection, schedule: Q01DX001 (ip), vehicle: saline with Tween-80): 110 % of control
T/C (endpoint: median tumor weight change, dose: 3.0 mg/kg/injection, schedule: Q01DX001 (ip), vehicle: saline with Tween-80): 85 % of control
T/C (endpoint: median tumor weight change, dose: 6.0 mg/kg/injection, schedule: Q01DX001 (ip), vehicle: saline with Tween-80): 100 % of control
T/C (endpoint: median tumor weight change, dose: 12.0 mg/kg/injection, schedule: Q01DX001 (ip), vehicle: saline with Tween-80): 90 % of control
T/C (endpoint: median tumor weight change, dose: 12.5 mg/kg/injection, schedule: Q01DX001 (ip), vehicle: saline with Tween-80): 71 % of control
T/C [1]: 104 % of control
T/C [2]: 55 % of control

CC1(C)COCN1COC1CCCCC1
T/C [3]: 79 % of control

CC(/C=C/c1ccccc1)=Nc1ccccc1
T/C [3]: 107 % of control
T/C [4]: 97 % of control
T/C [5]: 99 % of control

C=C(C)[C@H]1Cc2c(ccc3c2O[C@@H]2COc4cc(OC)c(OC)cc4[C@@H]2C3=O)O1
T/C (endpoint: median tumor weight (est.), dose: 4.0 mg/kg/injection, schedule: Q07DX005 (ip), vehicle: saline): 95 % of control
T/C (endpoint: median tumor weight (est.), dose: 8.0 mg/kg/injection, schedule: Q07DX005 (ip), vehicle: saline): 85 % of control
T/C (endpoint: median tumor weight (est.), dose: 16.0 mg/kg/injection, schedule: Q07DX005 (ip), vehicle: saline): 102 % of control
T/C (endpoint: median tumor weight (est.), dose: 32.0 mg/kg/injection, schedule: Q07DX005 (ip), vehicle: saline): 95 % of control

O=C(Nc1ccc(N=C=S)cc1Cl)c1cc(Cl)cc(Cl)c1O
T/C (endpoint: median tumor weight (est.), dose: 12.5 mg/kg/injection, schedule: Q07DX005 (ip), vehicle: Klucel (hydroxypropylcellulose) (HPC)): 79 % of control
T/C [6]: 118 % of control
T/C (endpoint: median tumor weight (est.), dose: 25.0 mg/kg/injection, schedule: Q07DX005 (ip), vehicle: Klucel (hydroxypropylcellulose) (HPC)): 49 % of control
T/C [7]: 96 % of control
T/C (endpoint: median tumor weight (est.), dose: 50.0 mg/kg/injection, schedule: Q07DX005 (ip), vehicle: Klucel (hydroxypropylcellulose) (HPC)): 26 % of control
T/C (endpoint: median tumor weight (est.), dose: 50.0 mg/kg/injection, schedule: Q07DX005 (ip), vehicle: saline): 111 % of control
T/C (endpoint: median tumor weight (est.), dose: 100.0 mg/kg/injection, schedule: Q07DX005 (ip), vehicle: saline): 78 % of control

O=c1ncccn1[C@@H]1O[C@H](CO)[C@H](O)C1O (stereo partly drawn)
T/C [8]: 78 % of control and 89 % of control
T/C [9]: 95 % of control and 103 % of control

CC[C@]1(O)C[C@H]2CN(CCc3c([nH]c4ccccc34)[C@@](C(=O)OC)(c3cc4c(cc3OC)N(C=O)[C@H]3[C@@](O)(C(=O)OC)[C@H](OC(C)=O)[C@]5(CC)C=CCN6CC[C@]43[C@@H]65)C2)C1
T/C (endpoint: mean tumor weight, dose: 0.07 mg/kg/injection, schedule: Q01DX009 (ip), vehicle: saline): 180 % of control
T/C (endpoint: mean tumor weight, dose: 0.15 mg/kg/injection, schedule: Q01DX009 (ip), vehicle: saline): 123 % of control
T/C (endpoint: mean tumor weight, dose: 0.3 mg/kg/injection, schedule: Q01DX009 (ip), vehicle: saline): 54 % of control
T/C (endpoint: mean tumor weight, dose: 0.5 mg/kg/injection, schedule: Q07DX006 (ip), vehicle: saline): 49 % of control
T/C (endpoint: mean tumor weight, dose: 1.0 mg/kg/injection, schedule: Q07DX006 (ip), vehicle: saline): 71 % of control
T/C (endpoint: mean tumor weight, dose: 2.0 mg/kg/injection, schedule: Q07DX006 (ip), vehicle: saline): 12 % of control
T/C (endpoint: median tumor weight (est.), dose: 0.13 mg/kg/injection, schedule: Q01DX005 (ip), vehicle: saline): 56 % of control
T/C (endpoint: median tumor weight (est.), dose: 0.19 mg/kg/injection, schedule: Q01DX005 (ip), vehicle: saline): 73 % of control
T/C (endpoint: median tumor weight (est.), dose: 0.25 mg/kg/injection, schedule: Q07DX005 (ip), vehicle: saline): 64 % of control and 73 % of control and 84 % of control
T/C (endpoint: median tumor weight (est.), dose: 0.28 mg/kg/injection, schedule: Q01DX005 (ip), vehicle: saline): 105 % of control
T/C (endpoint: median tumor weight (est.), dose: 0.5 mg/kg/injection, schedule: Q07DX005 (ip), vehicle: saline): 39 % of control and 43 % of control and 45 % of control
T/C (endpoint: median tumor weight (est.), dose: 0.95 mg/kg/injection, schedule: Q07DX005 (ip), vehicle: saline): 29 % of control
T/C (endpoint: median tumor weight (est.), dose: 1.0 mg/kg/injection, schedule: Q07DX005 (ip), vehicle: saline): 6 % of control
T/C (endpoint: median tumor weight (est.), dose: 1.4 mg/kg/injection, schedule: Q04DX005 (ip), vehicle: saline): 6 % of control
T/C (endpoint: median tumor weight (est.), dose: 1.4 mg/kg/injection, schedule: Q07DX005 (ip), vehicle: saline): 8 % of control
T/C (endpoint: median tumor weight (est.), dose: 2.0 mg/kg/injection, schedule: Q07DX005 (ip), vehicle: saline): 1 % of control

COc1cc2c(ccc3c4cc(OC)c(OC)cc4c[n+](C)c23)cc1O
T/C [10]: 190 % of control
T/C [8]: 89 % of control
T/C [9]: 121 % of control

Nc1nc(Br)nc2c1ncn2C1CC(O)C(CO)O1 (stereo not drawn)
T/C (endpoint: median tumor weight change, dose: 7.5 mg/kg/injection, schedule: Q03HX009 (ip), vehicle: saline): 112 % of control
T/C (endpoint: median tumor weight change, dose: 15.0 mg/kg/injection, schedule: Q03HX009 (ip), vehicle: saline): 99 % of control
T/C (endpoint: median tumor weight change, dose: 30.0 mg/kg/injection, schedule: Q03HX009 (ip), vehicle: saline): 51 % of control
T/C (endpoint: median tumor weight change, dose: 60.0 mg/kg/injection, schedule: Q03HX009 (ip), vehicle: saline): 54 % of control
T/C (endpoint: median tumor weight change, dose: 120.0 mg/kg/injection, schedule: Q03HX009 (ip), vehicle: saline): 31 % of control

COC(=O)Nc1cn2cc(C(=O)c3cccs3)ccc2n1
T/C (endpoint: median tumor weight change, dose: 62.5 mg/kg/injection, schedule: Q01DX001 (ip), vehicle: Klucel (hydroxypropylcellulose) (HPC)): 99 % of control
T/C (endpoint: median tumor weight change, dose: 125.0 mg/kg/injection, schedule: Q01DX001 (ip), vehicle: Klucel (hydroxypropylcellulose) (HPC)): 71 % of control
T/C [11]: 69 % of control

NC(=S)Nc1cccc2ccccc12
T/C [12]: 58 % of control
T/C [13]: 80 % of control

O=C1CC2(C(=O)N1CN1CCOCC1)c1ccccc1-c1ccccc12
T/C [11]: 167 % of control
T/C (endpoint: median tumor weight change, dose: 500.0 mg/kg/injection, schedule: Q01DX001 (ip), vehicle: Klucel (hydroxypropylcellulose) (HPC)): 102 % of control
T/C (endpoint: median tumor weight change, dose: 1000.0 mg/kg/injection, schedule: Q01DX001 (ip), vehicle: Klucel (hydroxypropylcellulose) (HPC)): 40 % of control

COC1/C=C/O[C@@]2(C)Oc3c(C)c(O)c4c(O)c(cc(O)c4c3C2=O)NC(=O)/C(C)=C\C=C\[C@H](C)C(O)[C@@H](C)[C@@H](O)[C@@H](C)[C@H](OC(C)=O)[C@@H]1C (stereo partly drawn)
T/C [12]: 87 % of control
T/C [13]: 82 % of control
T/C [3]: 98 % of control
T/C [4]: 153 % of control
T/C [5]: 83 % of control

CN(C)CC(Cl)CCl (stereo not drawn)
T/C (endpoint: mean tumor weight, dose: 50.0 mg/kg/injection, schedule: Q07DX009 (ip), vehicle: saline): 39 % of control
T/C (endpoint: mean tumor weight, dose: 100.0 mg/kg/injection, schedule: Q07DX006 (ip), vehicle: saline): 88 % of control
T/C (endpoint: mean tumor weight, dose: 100.0 mg/kg/injection, schedule: Q07DX009 (ip), vehicle: saline): 94 % of control
T/C (endpoint: mean tumor weight, dose: 200.0 mg/kg/injection, schedule: Q07DX006 (ip), vehicle: saline): 107 % of control
T/C (endpoint: mean tumor weight, dose: 200.0 mg/kg/injection, schedule: Q07DX009 (ip), vehicle: saline): 24 % of control
T/C [6]: 92 % of control
T/C [7]: 97 % of control and 117 % of control
T/C (endpoint: median tumor weight (est.), dose: 200.0 mg/kg/injection, schedule: Q07DX005 (ip), vehicle: saline): 62 % of control and 73 % of control
T/C (endpoint: median tumor weight (est.), dose: 400.0 mg/kg/injection, schedule: Q07DX005 (ip), vehicle: saline): 37 % of control

O=C1c2ccccc2C(=O)c2c(NCCNCCO)ccc(O)c21
T/C (endpoint: median tumor weight change, dose: 25.0 mg/kg/injection, schedule: Q01DX001 (ip), vehicle: saline with Tween-80): 91 % of control
T/C [1]: 44 % of control
T/C [2]: 41 % of control
T/C (endpoint: median tumor weight change, dose: 200.0 mg/kg/injection, schedule: Q01DX001 (ip), vehicle: saline with Tween-80): 33 % of control

C=C1C(=O)OC2CC(C)C3C4OC4C(O)C3(C)C(O)C12 (stereo not drawn)
T/C (endpoint: median tumor weight change, dose: 62.5 mg/kg/injection, schedule: Q01DX001 (ip), vehicle: saline): 119 % of control
T/C (endpoint: median tumor weight change, dose: 125.0 mg/kg/injection, schedule: Q01DX001 (ip), vehicle: saline): 80 % of control
T/C [10]: 74 % of control
T/C (endpoint: median tumor weight change, dose: 500.0 mg/kg/injection, schedule: Q01DX001 (ip), vehicle: saline): 88 % of control
